This note sets out measurements from publication PMC6093650, “Antidepressive and anxiolytic effects of ostruthin, a TREK-1 channel activator” (PLoS ONE, 2018).

SMILES strings stand for the structures.

Test [1] deals with GABAergic mIPSCS in the amygdala neurons. Nature of the test: GABAergic mIPSCs in amygdala neurons (preliminary data). The format is cell-based. The following applies: 100 μM.
For the next test, the system named is c-Fos immunoreactivity. Nature of the test: anti-c-Fos immunostaining of mouse brain nuclei. Format: in vivo, mice. The protocol:
The mouse was put into an anesthetizing jar and isoflurane (>0.2 ml) was added to the jar. After confirming that mouse was deeply anesthetized, its brain was fixed by transcardiac perfusion with 4% paraformaldehyde in PBS. The brains were sliced coronally (100 μm in thickness) using a microslicer (PRO7, Dosaka, Kyoto, Japan). The free-floating slices were reacted with an anti-c-Fos antibody (1: 200, goat, Santa Cruz, Dallas, TX) dissolved in PBS containing 0.3% BSA and 0.3% Triton-X-100, at 4°C for 48 h. The immunoreaction was visualized using a secondary antibody (rabbit anti-goat IgG, Vectastain Elite ABC-HRP Kit, Vector Labs, Burlingame, CA) and 3,3'-Diaminobenzidine (DAB, Tokyo Chemical Industry, Tokyo, Japan) at room temperature in accordance with the manufacturer’s instructions.
For statistical analysis, the number of c-Fos-immunoreactive cells was quantified using the Image-J software. Briefly, fields (0.16 mm^2) of c-Fos immunoreactivity were acquired by a microscope IX70 (Olympus) using a CCD camera. DAB-positive nuclei, of which diameters were longer than 7 μm, were considered as anti-c-Fos-immunoreactive neurons. The immunoreactive cell numbers were normalized to cells/mm^2.

The subject of test [2] is depression-like behavior of mice. Put plainly: forced swim test. Format: in vivo. The following applies: 0, 2, 5, 20 mg/kg i.p. 30 min before test, dose-dependent, last 4 min of 6 min, n = 8. From the text:
Male ICR mice (n = 317 in total) aged 5 weeks and weighing 32 ± 2 g were purchased from Shimizu Laboratory Supplies (Kyoto, Japan). For the social defeat stress test, we used 28 C57BL/6J mice (5 weeks old, Shimizu Laboratory Supplies) and 30 ICR mice (7–8 weeks old, Charles River Labs Japan, Yokohama, Kanagawa, Japan). Mice were maintained for at least 1 week prior to experiments. Animals were kept in groups in plastic cages. They had free access to food and water, and were kept in a 12-h light/dark cycle (08:00–20:00). Experiments were carried out between 10:00 and 18:00 in a quiet and air-conditioned experimental room, in which mice were habituated for at least 30 min before each experiment. Animal experiments were performed in accordance with the guidelines of the Physiological Society of Japan and were approved by the Committees on Animal Experiments at Kansai Medical University and the Kurashiki University of Science and the Arts. Ostruthin was initially dissolved in DMSO at higher concentration (100 mM) and then diluted in phosphate-buffered saline (PBS). The diluted solution was mixed vigorously for more than 10 min before the experiments, and an equal volume of DMSO was added to PBS as a control. […]
The forced swim test was performed in accordance with a method reported previously. […] Mouse was allowed to swim for 6 min and the activity was measured. […]

[3] abbreviates: 5 mg/kg, 30 min after tail suspension stress, n = 4.

With `CC(C)=CCC/C(C)=C/Cc1cc2ccc(=O)oc2cc1O` [ostruthin], in test [1], the “amplitude or frequency of GABAergic mIPSCS in the amygdala neurons” value is reported as “no effect”. In addition, in the test on c-Fos immunoreactivity (setting [3]), the “stress-induced c-Fos immunoreactivity in most nuclei (PVN, PVT, CeA, BLA, DRD, DRV)” value is recorded as “no significant differences” and the “stress-induced increase in c-Fos immunoreactivity in the lateral septum (LS)” value is listed as “significantly suppressed”. In the test on c-Fos immunoreactivity (fixed 30 min after administration, vs PBS (data not shown)), the “anti-c-Fos immunoreactivity in non-stressed animals” value is “no difference”. Moreover, the time spent immobile entry in test [2] is on record as “decreased”.
